Results as given in patent US20260076909A1, “SOLID COMPOSITION AND METHOD FOR PRODUCING THE SAME” (DKS Co. Ltd., priority 2022, published 2026).

Legend:
[1] = Amorphization evaluation: XRD; assay type: physicochemical
Method: A “RINT UltimaIII horizontal goniometer (D/teX-25)” manufactured by Rigaku Corporation was used to obtain the XRD chart of such a solid composition. The XRD measurement conditions were the focusing method, X-ray: Cu/40 kV/40 mA, scanning range: 3.0° to 50.0°, and scanning axis: 2θ/θ.

[2] = Dissolution test 1: dissolution amount; assay type: physicochemical; conditions: cannabidiol; 8 mg in capsule, 900 mL ion-exchanged water, 37° C., 0.45 μm filtrate
Method: As the dissolution testing apparatus, an “NTR-6600AST” manufactured by Toyama Sangyo Co., Ltd. was used; the vessel was charged with 900 mL of ion-exchanged water; for the purpose of degassing, the water was stirred overnight at a water temperature of 37° C.±0.2° C. A gelatin capsule (“HF capsule” manufactured by Matsuya Corporation) filled with the solid composition containing 8 mg of the cannabidiol was placed into a sinker, and immersed into the vessel. After a lapse of a predetermined time, sampling was performed in the vessel and the sample was filtered through a 0.45 μm membrane filter. […] The filtrate was diluted two-fold with ethanol and filtered through a 0.20 μm membrane filter; HPLC was performed to quantify the cannabidiol. For each solid composition, two samples were tested and the resultant values were averaged; the average was rounded to two decimal places to determine the dissolution amount.
The 0.45 μm membrane filter employed was “25HP045AN” (filter material: PTFE, pore size: 0.45 μm) manufactured by ADVANTEC. The 0.20 μm membrane filter employed was “13HP020AN” (filter material: PTFE, pore size: 0.20 μm) manufactured by ADVANTEC.
The HPLC conditions were column: octadecylsilyl column, solvent: mixed solution of acetonitrile/10 mM aqueous ammonium acetate solution, and wavelength: 210 nm. […]

Dissolution test 2 = assay type: physicochemical; conditions: composition with 0.4 mg cannabidiol in 45 g ion-exchanged water, 0.45 μm filtrate
Method: In a 50 mL screw vial, such a solid composition including 0.4 mg of cannabidiol was dissolved in 45 g of ion-exchanged water. The resultant solution was filtered through a 0.45 μm membrane filter; the filtrate was diluted two-fold with ethanol and further filtered through a 0.20 μm membrane filter; HPLC was performed to quantify the cannabidiol. The value was rounded to two decimal places to determine the dissolution amount. The 0.45 μm membrane filter, the 0.20 μm membrane filter, and the HPLC conditions were as described in the dissolution test 1.

[3] = Oral absorption evaluation: animal experiment; assay type: in vivo; conditions: male SD rats, 30 mg/kg in terms of cannabidiol, 0.5-24 hours, highest AUC of three rats
Method: Of the three rats, data of the highest AUC was employed.
In the LC-MS/MS measurement, as a pre-treatment, 20 μL of the plasma sample and 80 μL of methanol were placed into an Eppendorf tube and suspended for deproteinization. After the proteins were precipitated in a centrifuge, the supernatant was subjected to centrifugal filtration using a filter (manufactured by Millipore, Ultrafree-MC, Hydrophilic PTFE membrane, 0.2 μm). This solution and ultrapure water were mixed together in 1:1 (mass ratio), and used as the measurement sample. The measurement conditions of LC-MS/MS were column: octadecylsilyl column, ion source: ESI+, mobile phase: solution mixture of methanol/10 mM aqueous ammonium formate solution.
The solid composition of Example 5 was evaluated for oral absorption by an animal experiment similar to that for the solid composition of Example 3. Specifically, while the powder composed only of cannabidiol in Comparative Example 1 was used as the control, the animal experiment was performed in accordance with the above-described oral absorption evaluation method.

In the case of `C=C(C)[C@@H]1CCC(C)=C[C@H]1c1c(O)cc(CCCCC)cc1O` [Comparative Example 1, cannabidiol], the “Form of the cannabinoid from the XRD chart (in words)” value [1] is reported as “crystalline state”, the “Dissolution amount after lapse of 120 minutes” value [2] is reported as 0.01 µg/mL and the “Dissolution amount after lapse of 240 minutes” value [2] is reported as 0.01 µg/mL. The “Dissolution test 2 dissolution amount” value (Dissolution test 2) was 0.03 µg/mL, the “AUC (area under the blood concentration time curve) of the cannabidiol” value ([3]; 30 mg/kg) was 665 ng·h/mL and the AUC ([3]; rat, plasma, read-out: AUC (area under the blood concentration time curve) of the cannabidiol) was 812 ng·h/mL.
